Experimental findings from US11840527B2, “Non-fused thiophene derivatives and their uses” (ENYO PHARMA, priority 2018, dated 2023) are described below.

One may read the IC50 as the concentration at which inhibition is half-maximal. Low readings indicate greater potency in that assay, high ones weaker potency in that assay.

Structures can show the parent of a compound that is named as a salt.

This test has as its system H1N1 (influenza A/New Caledonia/20/99). Kind of test: Antiviral effect on A549 cells infected with H1N1. The format is cell-based, H1N1 A/New Caledonia/20/99 virus. The conditions noted are these: Influenza A virus, MOI 0.1, 48 h post-infection, MUNANA neuraminidase readout. How it is done: The antiviral effect of the compounds of the invention have been tested on A549 cell lines infected with H1N1 (influenza A/New Caledonia/20/99).
Human A549 cells (80,000 cells/well in a 96 well plate) were treated with a range of concentration of test compounds and immediately infected by H1N1 A/New Caledonia/20/99 virus (clinical isolate) at MOI of 0.1 in DMEM/1% Penicillin/streptomycin supplemented with […] TPCK trypsin (Sigma) and incubated at 37° C. in 5% CO2. 48 h post-infection, supernatants (25 μl) were collected and transferred into a 96-well black flat-bottom plate, mixed with 25 μl PBS with Ca++/Mg++ (Thermo Fisher) and 50 μl of 2′-(4-Methylumbelliferyl)-ax-D-N-acetylneuraminic acid sodium salt hydrate stock-solution (20 μM, MUNANA, Sigma). Plates were incubated 1h at 37° C. and reaction is stopped by adding 100 μl of Stop Solution (glycine 0.1 M pH10.7/25% ethanol). The amount of fluorescent product released by MUNANA hydrolysis (4-MU) was measured in a Tecan spectrophotometer with excitation and emission wavelengths of 365 and 450 nm respectively.
`O=C(Nc1scc(C2CC(c3ccccc3)C2)c1C(=O)O)c1ccccc1` (centres unmarked) [Compound #63, 2-Benzamido-4-(3-phenylcyclobutyl)thiophene-3-carboxylic acid] had an IC50 of 150 nM. For `O=C(Nc1scc(C2CCCC2)c1C(=O)O)c1ccc(NCC2CCOCC2)cc1` [Compound #66, 4-Cyclopentyl-2-[[4-(tetrahydropyran-4-ylmethylamino)benzoyl]amino]thiophene-3-carboxylic acid] the value was 15 nM; for `O=C(Nc1scc(C2CCCC2)c1C(=O)O)c1cccc(N2CCOCC2)c1` [Compound #71, 4-Cyclopentyl-2-[(3-morpholinobenzoyl)amino]thiophene-3-carboxylic acid], 130 nM; for `O=C(Nc1scc(C2COc3ccccc3C2)c1C(=O)O)c1ccccc1` (centres unmarked) [Compound #84, 2-Benzamido-4-chroman-3-yl-thiophene-3-carboxylic acid], 287 nM.

On to `O=C(Nc1scc(C2CCc3ccccc3O2)c1C(=O)O)c1ccccc1` (centres unmarked) [Compound #85, 2-Benzamido-4-chroman-2-yl-thiophene-3-carboxylic acid], for which the IC50 was determined as 506 nM.

Compound `O=C(Nc1scc(C2CC2)c1C(=O)O)c1ccccc1` [Compound #87, 2-Benzamido-4-cyclopropyl-thiophene-3-carboxylic acid] showed a concentration for half-maximal inhibition (IC50) of 810 nM.

Take `COC1CN(c2ccc(C(=O)Nc3scc(C4CC4)c3C(=O)O)cc2)C1` [Compound #88, 4-Cyclopropyl-2-[[4-(3-methoxyazetidin-1-yl)benzoyl]amino]thiophene-3-carboxylic acid]: the half-maximal inhibitory concentration (IC50) amounted to 500 nM. As to `O=C(Nc1scc(C2CC2)c1C(=O)O)c1ccc(NCC2CCOCC2)cc1` [Compound #90, 4-Cyclopropyl-2-[[4-(tetrahydropyran-4-ylmethylamino)benzoyl]amino]thiophene-3-carboxylic acid], the IC50 came out at 240 nM.

In turn, `CC(C)(C)c1csc(NC(=O)c2ccc(NCC3CCOCC3)cc2)c1C(=O)O` [Compound #91, 4-Tert-butyl-2-[[4-(tetrahydropyran-4-ylmethylamino)benzoyl]amino]thiophene-3-carboxylic acid] displayed a 50% inhibitory concentration (IC50) of 120 nM. The compound `COC1CN(c2ccc(C(=O)Nc3scc(C(C)(C)C)c3C(=O)O)cc2)C1` [Compound #92, 4-tert-Butyl-2-[[4-(3-methoxyazetidin-1-yl)benzoyl]amino]thiophene-3-carboxylic acid] came in with a 50% inhibitory concentration (IC50) of 260 nM. For `COCCOc1ccc(C(=O)Nc2scc(C3COc4ccccc4C3)c2C(=O)O)cc1` (centres unmarked) [Compound #95, 4-Chroman-3-yl-2-[[4-(2-methoxyethoxy)benzoyl]amino]thiophene-3-carboxylic acid] the value was 610 nM; for `CC(C)Cc1csc(NC(=O)c2ccccc2)c1C(=O)O` [Compound #96, 2-Benzamido-4-isobutyl-thiophene-3-carboxylic acid], 610 nM; for `COC1CN(c2ccc(C(=O)Nc3scc(C4CCC4)c3C(=O)O)cc2)C1` [Compound #97, 4-Cyclobutyl-2-[[4-(3-methoxyazetidin-1-yl)benzoyl]amino]thiophene-3-carboxylic acid], 110 nM. For `O=C(Nc1scc(C2CCC2)c1C(=O)O)c1ccccc1` [Compound #98, 2-Benzamido-4-cyclobutyl-thiophene-3-carboxylic acid] the value was 610 nM; for `O=C(Nc1scc(C2CCC2)c1C(=O)O)c1ccc(NCC2CCOCC2)cc1` [Compound #99, 4-Cyclobutyl-2-[[4-(tetrahydropyran-4-ylmethylamino)benzoyl]amino]thiophene-3-carboxylic acid], 14 nM. With `COC1CN(c2ccc(C(=O)Nc3sc(C)c(C)c3C(=O)O)cc2)C1` [Compound #100, 2-[[4-(3-Methoxyazetidin-1-yl)benzoyl]amino]-4,5-dimethyl-thiophene-3-carboxylic acid], it took 44.5 nM to reach half-maximal inhibition (IC50).

Turning to `Cc1sc(NC(=O)c2ccc(NCC3CCOCC3)cc2)c(C(=O)O)c1C` [Compound #102, 4,5-Dimethyl-2-[[4-(tetrahydropyran-4-ylmethylamino)benzoyl]amino]thiophene-3-carboxylic acid], half-maximal inhibition (IC50) was put at 820 nM. On to `COCCNc1ccc(C(=O)Nc2scc(C(C)(C)C)c2C(=O)O)cc1` [Compound #103, 4-tert-Butyl-2-[[4-(2-methoxyethylamino)benzoyl]amino]thiophene-3-carboxylic acid], for which the half-maximal inhibitory concentration (IC50) came out at 460 nM. Consider `CCOC1CN(c2ccc(C(=O)Nc3scc(C(C)(C)C)c3C(=O)O)cc2)C1` [Compound #104, 4-tert-Butyl-2-[[4-(3-ethoxyazetidin-1-yl)benzoyl]amino]thiophene-3-carboxylic acid], for which half-maximal inhibition (IC50) was put at 240 nM. The result for `CC(C)(C)c1csc(NC(=O)c2ccc(NC3CCOCC3)cc2)c1C(=O)O` [Compound #105, 4-tert-Butyl-2-[[4-(tetrahydropyran-4-ylamino)benzoyl]amino]thiophene-3-carboxylic acid] reads 680 nM. In turn, `O=C(Nc1scc(C2CC(F)(F)C2)c1C(=O)O)c1ccc(NCC2CCOCC2)cc1` [Compound #106, 4-(3,3-Difluorocyclobutyl)-2-[[4-(tetrahydropyran-4-ylmethylamino)benzoyl]amino]thiophene-3-carboxylic acid] displayed an IC50 of 350 nM. `COC1CN(c2ccc(C(=O)Nc3scc(C4CC(F)(F)C4)c3C(=O)O)cc2)C1` [Compound #107, 4-(3,3-Difluorocyclobutyl)-2-[[4-(3-methoxyazetidin-1-yl)benzoyl]amino]thiophene-3-carboxylic acid] returned an IC50 of 460 nM. Take `COCCNc1ccc(C(=O)Nc2scc(C3(C)CC3)c2C(=O)O)cc1` [Compound #108, 2-[[4-(2-Methoxyethylamino)benzoyl]amino]-4-(1-methylcyclopropyl)thiophene-3-carboxylic acid]: inhibition was half-maximal at 560 nM (IC50).

Compound `COC1CN(c2ccc(C(=O)Nc3scc(CC(C)C)c3C(=O)O)cc2)C1` [Compound #109, 4-iso-Butyl-2-[[4-(3-methoxyazetidin-1-yl)benzoyl]amino]thiophene-3-carboxylic acid diethylamine salt] showed a half-maximal inhibitory concentration (IC50) of 200 nM. The result for `CC(C)(C)c1csc(NC(=O)c2cccc(NCC3CCOCC3)c2)c1C(=O)O` [Compound #110, 4-tert-Butyl-2-[[3-(tetrahydropyran-4-ylmethylamino)benzoyl]amino]thiophene-3-carboxylic acid] reads 820 nM; that for `COC1CN(c2ccc(C(=O)Nc3scc(C4(C)CC4)c3C(=O)O)cc2)C1` [Compound #112, 2-[[4-(3-Methoxyazetidin-1-yl)benzoyl]amino]-4-(1-methylcyclopropyl) thiophene-3-carboxylic acid], 380 nM.

In turn, `CC(C)Cc1csc(NC(=O)c2ccc(NCC3CCOCC3)cc2)c1C(=O)O` [Compound #113, 4-Isobutyl-2-[[4-(tetrahydropyran-4-ylmethylamino)benzoyl]amino]thiophene-3-carboxylic acid] gave an IC50 of 120 nM. For `COC1CN(c2ccc(C(=O)Nc3sc(C(C)C)c(C)c3C(=O)O)cc2)C1` [Compound #114, 5-Isopropyl-2-[[4-(3-methoxyazetidin-1-yl)benzoyl]amino]-4-methyl-thiophene-3-carboxylic acid diethylamine salt] the value was 510 nM; for `COC1CN(c2ccc(C(=O)Nc3scc(C4(C)CCC4)c3C(=O)O)cc2)C1` [Compound #115, 2-[[4-(3-Methoxyazetidin-1-yl)benzoyl]amino]-4-(1-methylcyclobutyl) thiophene-3-carboxylic acid], 240 nM; for `COCCOc1ccc(C(=O)Nc2scc(C(C)(C)C)c2C(=O)O)cc1` [Compound #116, 4-tert-Butyl-2-[[4-(2-methoxyethoxy)benzoyl]amino]thiophene-3-carboxylic acid], 10 nM. For `COCCN(C)c1ccc(C(=O)Nc2scc(C(C)(C)C)c2C(=O)O)cc1` [Compound #117, 4-tert-Butyl-2-[[4-[2-methoxyethyl(methyl)amino]benzoyl]amino]thiophene-3-carboxylic acid] the value was 76 nM; for `CC(C)(C)c1csc(NC(=O)c2ccc(NC3CCCOC3)cc2)c1C(=O)O` (centres unmarked) [Compound #118, 4-tert-Butyl-2-[[4-(tetrahydropyran-3-ylamino)benzoyl]amino]thiophene-3-carboxylic acid], 200 nM; for `CC(C)(C)c1csc(NC(=O)c2ccc(NCC3CCCOC3)cc2)c1C(=O)O` (centres unmarked) [Compound #119, 4-tert-Butyl-2-[[4-(tetrahydropyran-3-ylmethylamino)benzoyl]amino]thiophene-3-carboxylic acid], 100 nM. The result for `CN(CC1CCOCC1)c1ccc(C(=O)Nc2scc(C(C)(C)C)c2C(=O)O)cc1` [Compound #120, 4-tert-Butyl-2-[[4-[methyl(tetrahydropyran-4-ylmethyl)amino]benzoyl]amino]thiophene-3-carboxylic acid] reads 100 nM; that for `COC1CN(c2ccc(C(=O)Nc3scc(C(C)(C)C)c3C(=O)O)c(F)c2)C1` [Compound #121, 4-tert-Butyl-2-[[2-fluoro-4-(3-methoxyazetidin-1-yl)benzoyl]amino]thiophene-3-carboxylicacid], 510 nM.
